# Reference: patent US4959368A, “Therapeutic agent for neurological diseases” (Mitsui Petrochemical Industries Ltd., priority 1986, dated 1990)
# Experiments:
# [1] = tested on: human neuroblastoma cell line GOTO; experiment: Activity on neuroblastoma cell line GOTO (cell number, number and length of neurites); assay type: cell-based
# Method: The biological activities in vitro of the compounds of formula (I) on cells of the nervous system were tested. The cells tested were human neuroblastoma cell line GOTO [see Sekiguchi, M., Oota, T., Sakakibara, K., Inui, N. & Fujii, G., Japan. J. Exp. Med., 49, 67-83 (1979)], and neuroblastoma cell line NB-1 [see Miyake, S., Shimo, Y., Kitamura, T., Nojyo, Y., Nakamura, T., Imkashuku, S. and Abe, T., The Autonomic Nervous System, 10, 115-120 (1973)], and mouse neuroblastoma cell line neuro-2a (Dainippon Pharmaceutical Co., Ltd.) which have been established as the cells of the nervous system. The above neuve cells were grown in an incubator at 37° C. in the presence of 5% carbon dioxide gas exponentially, and then cultivated for a certain period of time together with the compounds of formula (I).
# The effect of the compounds of this invention on neuroblastoma cells was examined by the following method.
# A culture medium [composed of 45% of RPMI 1640 medium, 45% modified Eagle's medium (MEM) and 10% of fetal calf serum (FCS) and containing penicillin G sodium (100 units/ml) and streptomycin sulfate (100 microgram/ml)] containing neurobalstoma cell line GOTO in the logarithmic growth period was poured in an amount of 2 ml each into polystyrene dishes (35 mm; made by Corning Co.) so that the cell concentration was 2 to 6×10^4 cells per dish, and the cells were cultured for 1 to 2 days in a carbon dioxide gas incubator containing 5% of carbon dioxide gas in air at 37° C. Then, the culture fluid was removed, and 2 ml of a fresh serum-free culture fluid (consisting of 50% of RPMI medium and 50% of MEM medium and containing penicillin G sodium and streptomycin sulfate in the same amounts as above) was added. At the same time, a presterilized PBS solution (phosphate buffered saline) of each of the test compounds in various concentrations was added to each of the dishes. After culturing for 24 hours, the number of living cells was counted. Furthermore, the culture was photographed, and from the photos, the number and length of neurites per cell were measured. The numer of living cells was counted for 3 to 6 dishes by resistance to staining with erythrosine dye. The number and length of the neurites were measured with regard to 6 photos (more than 200 cells per photo).
# [2] = tested on: mouse neuroblastoma cell line neuro-2a; experiment: Activity on neuro-2a, cells with outgrown neurites; assay type: cell-based
# Method: In order to examine the effects of the test compounds, the following method was also employed.
# Mouse neuro 2a cells in the logarithmic growth period in the Dulbecco's modified Eagle's medium (DMEM) containing 10% FCS was seeded in a 48-well plate so that the number of cells was 1,000 cells/well, and cultured for one day in 0.25 ml of the culture fluid in each well. The culture medium was then replaced by a medium containing each of the test compounds and FCS, and the cells were further cultured for 24 hours. Then, a 4% aqueous glutaraldehyde solution in the same amount as the medium (0.25 ml) was added, and the culture fluid was left to stand at room temperature for 2 hours to fix the cells. After washing with water, a 0.05% aqueous solution of methylene blue was added to stain the cells. Under a microscope, the number of cells containing outgrown neurites (cells having at least one neutrite with a length at least two times as large as the long diameter of the cell) was counted visually, and the proportion of these cells in the entire cells was calculated. The well was observed over 5 or more visual fields (at least 2% of the entire surface area of the well) continuous to the left and right from a mark put at the center of the well, and more than 200 cells was counted. One drug compound was used in 6 different concentrations at most, and three runs were conducted for each concentration.
# mice = experiment: Acute toxicity, mouse; assay type: in vivo; conditions: 24 hours; for Number of dead animals/number of test animals: Table 7, 1000 mg/kg p.o.; for Presumed LD50: Table 7, p.o., 1440 min
# Method: The acute toxicity of the compounds of the invention was examined by the following method.
# Male ddy-strain 5-week old mice and male Wistar-strain 8 week old rats, five per group, were used as experimental animals. Each of the compounds was dissolved in saline and administered perorally, and the toxicity of the compound was assessed 24 hours after the administration.
# [3] = Table 3 Run No. 11, 0.1 mM, control 2.5 ± 0.6
# [4] = Table 3 Run No. 2, 0.1 mM, control 1.9 ± 0.9
# [5] = Table 3 Run No. 9, 0.03 mM, control 2.0 ± 1.0
# [6] = Table 3 Run No. 10, 0.1 mM, control 1.7 ± 0.7
compound,measurement,setting,value
CC(C)N1Cc2nc(N3CCNCC3)ncc2C1=O [Compound 628],Length of neurites (mean ± S.D.),"[1]; Table 1, Run No. 6 by footnote, 1 μg/ml, control 42.48 ± 19.64, all *P <0.01",55.72 ± 25.08 μm/cell
same,Number of neurites/cell (mean ± S.D.),"[1]; Table 1, Run No. 6 by footnote, 10 μg/ml, control 1.79 ± 0.80",2.06 ± 0.81 neurites/cell
same,Length of neurites (mean ± S.D.),"[1]; Table 1, Run No. 6 by footnote, 10 μg/ml, control 42.48 ± 19.64, all *P <0.01",53.68 ± 22.36 μm/cell
same,Number of neurites/cell (mean ± S.D.),"[1]; Table 1, second control group (Run No. 6 by footnote), 1 μg/ml, control 1.79 ± 0.80",1.90 ± 0.81 neurites/cell
COc1cc2cnc(N3CCNCC3)nc2cc1OC [Compound 940],Cells having neurites with a length at least twice the long diameter of cell/total number of cells,[2]; [3],11.5 ± 0.2%
same,Cells having neurites with a length at least twice the long diameter of cell/total number of cells,"[2]; Table 3 Run No. 11, 0.3 mM, control 2.5 ± 0.6",17.0 ± 1.2%
same,Number of neurites/cell (mean ± S.D.),"[1]; Table 1 Run No. 1, 10 μg/ml, control 2.09 ± 0.61",2.12 ± 0.60 neurites/cell
same,Number of cells (mean ± S.E.),"[1]; Table 1 Run No. 1, 10 μg/ml, control 14.34 ± 0.72",21.55 ± 2.36 × 10^4 /dish
same,Length of neurites (mean ± S.D.),"[1]; Table 1 Run No. 1, 10 μg/ml, control 70.10 ± 43.03",77.92 ± 49.91 μm/cell
"CN1C(=O)Cc2cnc(N3CCN(Cc4ccc5c(c4)OCO5)CC3)nc21 [Compound 438, 5,6-Dihydro-7-methyl-2[4-(3,4-methylenedioxyphenylmethyl)piperazino]-6-oxo(7H)pyrrolo[2,3-d]pyrimidine naphthalene-2-sulfonate]",Number of dead animals/number of test animals,mice,0/5
CN1Cc2nc(N3CCNCC3)ncc2C1=O [Compound 606],Cells having neurites with a length at least twice the long diameter of cell/total number of cells,"[2]; Table 3 Run No. 6, 0.1 mM, control 4.4 ± 0.9",6.9 ± 1.8%
same,Cells having neurites with a length at least twice the long diameter of cell/total number of cells,"[2]; Table 3 Run No. 6, 3 mM, control 4.4 ± 0.9",11.9 ± 2.1%
same,Number of dead animals/number of test animals,mice,0/5
same,Presumed LD50,mice,> 1000 mg/kg p.o.
"CC(=O)N1Cc2nc(N3CCNCC3)ncc2C1=O [Compound 650, 6-Acetyl-2-piperazino-5-oxo-5,6-dihydro(7H)pyrrolo[3,4-d]pyrimidine naphthalene-2-sulfonate]",Number of dead animals/number of test animals,mice,0/5
CCC(=O)N1Cc2nc(N3CCNCC3)ncc2C1=O [Compound 678],Cells having neurites with a length at least twice the long diameter of cell/total number of cells,[2]; [3],4.1 ± 2.2%
same,Cells having neurites with a length at least twice the long diameter of cell/total number of cells,"[2]; Table 3 Run No. 11, 1 mM, control 2.5 ± 0.6",16.1 ± 1.6%
same,Cells having neurites with a length at least twice the long diameter of cell/total number of cells,"[2]; Table 3 Run No. 11, 3 mM, control 2.5 ± 0.6",9.1 ± 2.2%
same,Number of dead animals/number of test animals,mice,0/5
CCOC(=O)N1CCN(c2ncc3c(n2)N(C)C(=O)C3)CC1 [Compound 442],Cells having neurites with a length at least twice the long diameter of cell/total number of cells,[2]; [4],5.7 ± 0.5%
same,Cells having neurites with a length at least twice the long diameter of cell/total number of cells,"[2]; Table 3 Run No. 2, 0.3 mM, control 1.9 ± 0.9",7.1 ± 2.6%
same,Cells having neurites with a length at least twice the long diameter of cell/total number of cells,"[2]; Table 3 Run No. 2, 1 mM, control 1.9 ± 0.9",9.1 ± 0.8%
same,Cells having neurites with a length at least twice the long diameter of cell/total number of cells,"[2]; Table 3 Run No. 9, 3 mM, control 2.0 ± 1.0",13.8 ± 1.2%
"CCOC(=O)CN1CCN(c2ncc(C(=O)OC)c(NC(C)C)n2)CC1 [Compound 100, Methyl 2-(4-ethoxycarbonylmethylpiperazino)-4-isopropylaminopyrimidine-5-carboxylate]",Number of neurites/cell (mean ± S.D.),"[1]; Table 1, Run No. 7 by footnote, 10 μg/ml, control 1.77 ± 0.68",2.00 ± 0.79 neurites/cell
same,Length of neurites (mean ± S.D.),"[1]; Table 1, Run No. 7 by footnote, 10 μg/ml, control 42.20 ± 17.75, all *P <0.01",56.06 ± 26.47 μm/cell
CN1C(=O)Cc2cnc(N3CCNCC3)nc21 [Compound 420],Cells having neurites with a length at least twice the long diameter of cell/total number of cells,"[2]; Table 3 Run No. 8, 0.3 mM, control 3.7 ± 0.4",16.5 ± 2.1%
same,Cells having neurites with a length at least twice the long diameter of cell/total number of cells,"[2]; Table 3 Run No. 8, 0.5 mM, control 3.7 ± 0.4",30.6 ± 5.0%
same,Cells having neurites with a length at least twice the long diameter of cell/total number of cells,"[2]; Table 3 Run No. 8, 1 mM, control 3.7 ± 0.4",47.5 ± 0.6%
"CN1C(=O)Cc2cnc(N3CCN(Cc4ccc5c(c4)OCO5)CC3)nc21 [Compound 436, 5,6-Dihydro-7-methyl-2[4-(3,4-methylenedioxyphenylmethyl)piperazino]-6-oxo(7H)pyrrolo[2,3-d]pyrimidine]",Cells having neurites with a length at least twice the long diameter of cell/total number of cells,[2]; [5],14.3 ± 2.9%
same,Cells having neurites with a length at least twice the long diameter of cell/total number of cells,"[2]; Table 3 Run No. 9, 0.1 mM, control 2.0 ± 1.0",15.6 ± 7.3%
same,Cells having neurites with a length at least twice the long diameter of cell/total number of cells,"[2]; Table 3 Run No. 9, 0.3 mM, control 2.0 ± 1.0",12.5 ± 6.2%
"CN1CCc2cnc(N3CCNCC3)nc21 [Compound 914, 5,6-Dihydro-7-methyl-2-piperazino(7H)pyrrolo[2,3-d]pyrimidine naphthalene-2-sulfonate]",Cells having neurites with a length at least twice the long diameter of cell/total number of cells,[2]; [6],4.9 ± 0.9%
same,Cells having neurites with a length at least twice the long diameter of cell/total number of cells,"[2]; Table 3 Run No. 10, 0.3 mM, control 1.7 ± 0.7",4.6 ± 0.8%
"CC1C(=O)N(C)c2nc(N3CCNCC3)ncc21.O=C(O)/C=C\C(=O)O (stereo not drawn) [Compound 446, 5,6-Dihydro-5,7-dimethyl-6-oxo-2-piperazino(7H)pyrrolo[2,3-d]pyrimidine maleate]",Cells having neurites with a length at least twice the long diameter of cell/total number of cells,"[2]; Table 3 Run No. 9, 0.5 mM, control 2.0 ± 1.0",6.3 ± 0.4%
same,Cells having neurites with a length at least twice the long diameter of cell/total number of cells,"[2]; Table 3 Run No. 9, 1 mM, control 2.0 ± 1.0",9.2 ± 2.0%
CCNc1nc(N2CCNCC2)ncc1C(=O)OC [Compound 136],Cells having neurites with a length at least twice the long diameter of cell/total number of cells,[2]; [4],7.2 ± 1.7%
same,Cells having neurites with a length at least twice the long diameter of cell/total number of cells,"[2]; Table 3 Run No. 10, 0.01 mM, control 1.7 ± 0.7",5.8 ± 1.6%
same,Cells having neurites with a length at least twice the long diameter of cell/total number of cells,"[2]; Table 3 Run No. 10, 0.03 mM, control 1.7 ± 0.7",16.4 ± 0.9%
same,Cells having neurites with a length at least twice the long diameter of cell/total number of cells,[2]; [6],12.6 ± 1.4%
same,Number of neurites/cell (mean ± S.D.),"[1]; Table 1 Run No. 2, 1 μg/ml, control 2.06 ± 0.60",2.14 ± 0.63 neurites/cell
same,Number of cells (mean ± S.E.),"[1]; Table 1 Run No. 2, 1 μg/ml, control 12.30 ± 1.48",12.85 ± 2.52 × 10^4 /dish
same,Length of neurites (mean ± S.D.),"[1]; Table 1 Run No. 2, 1 μg/ml, control 55.00 ± 37.26",60.24 ± 34.28 μm/cell
CN1Cc2nc(N3CCNCC3)ncc2C1=O [Compound 608],Number of dead animals/number of test animals,mice,0/5
same,Presumed LD50,mice,> 1000 mg/kg p.o.
"CNc1nc(N2CCNCC2)ncc1CCO [Compound 140, 2-Piperazino-5-(2-hydroxyethyl)-4-methylaminopyrimidine 2-naphthalenesulfonate]",Cells having neurites with a length at least twice the long diameter of cell/total number of cells,[2]; [5],3.7 ± 1.4%
